From ChEMBL document CHEMBL4622891, “Design, synthesis, and pharmacological evaluation of 2-(4-sulfonylphenyl)-2-[(E)-pyrrolidin-1-ylimino]-N-thiazoleacetamides as glucokinase activators” (Bioorg Med Chem Lett, 2020)

Each molecule was assayed against Voltage-gated inwardly rectifying potassium channel KCNH2 (Homo sapiens, UniProt Q12809) (assay: Inhibition of human ERG).
Chain of Voltage-gated inwardly rectifying potassium channel KCNH2 (Q12809 whole entry): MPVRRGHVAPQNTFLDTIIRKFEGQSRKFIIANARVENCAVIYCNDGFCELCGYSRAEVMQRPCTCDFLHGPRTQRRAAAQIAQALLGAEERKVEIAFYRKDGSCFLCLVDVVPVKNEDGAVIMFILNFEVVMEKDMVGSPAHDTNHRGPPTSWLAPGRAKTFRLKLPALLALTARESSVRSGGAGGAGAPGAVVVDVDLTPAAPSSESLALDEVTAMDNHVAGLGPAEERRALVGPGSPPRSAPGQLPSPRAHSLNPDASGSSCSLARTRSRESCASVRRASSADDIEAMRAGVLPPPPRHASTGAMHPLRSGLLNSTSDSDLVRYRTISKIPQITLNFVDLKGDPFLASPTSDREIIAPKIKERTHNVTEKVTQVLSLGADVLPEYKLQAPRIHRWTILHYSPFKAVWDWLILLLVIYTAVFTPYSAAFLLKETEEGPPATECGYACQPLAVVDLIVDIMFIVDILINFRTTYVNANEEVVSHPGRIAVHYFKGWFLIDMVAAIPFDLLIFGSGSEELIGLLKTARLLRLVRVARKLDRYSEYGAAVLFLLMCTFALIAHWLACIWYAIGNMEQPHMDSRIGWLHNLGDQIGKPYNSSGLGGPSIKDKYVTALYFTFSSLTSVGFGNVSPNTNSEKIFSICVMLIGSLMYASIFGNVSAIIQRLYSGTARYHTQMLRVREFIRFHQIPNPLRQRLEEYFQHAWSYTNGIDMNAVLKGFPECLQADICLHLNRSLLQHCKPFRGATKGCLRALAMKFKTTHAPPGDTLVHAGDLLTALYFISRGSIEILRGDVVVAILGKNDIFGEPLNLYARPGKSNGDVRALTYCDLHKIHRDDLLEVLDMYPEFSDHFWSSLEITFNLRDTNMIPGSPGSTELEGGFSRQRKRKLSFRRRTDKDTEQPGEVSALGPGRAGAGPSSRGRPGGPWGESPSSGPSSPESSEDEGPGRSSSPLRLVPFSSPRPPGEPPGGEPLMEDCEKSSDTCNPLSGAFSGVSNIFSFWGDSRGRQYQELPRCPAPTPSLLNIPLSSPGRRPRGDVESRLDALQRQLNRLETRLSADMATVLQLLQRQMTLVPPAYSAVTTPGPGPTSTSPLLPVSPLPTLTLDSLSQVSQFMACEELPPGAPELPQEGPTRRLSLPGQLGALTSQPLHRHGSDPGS

Compared with Cc1cnc(NC(=O)/C(=N/N2CCCC2)c2ccc(S(=O)(=O)C3CC3)cc2)s1, O=C(Nc1ncc(Cl)s1)/C(=N/N1CCCC1)c1ccc(S(=O)(=O)C2CC2)cc1 is lower in IC50: greater than 100 µM for the first, 16.7 µM for the second.

First: Cc1nnc(NC(=O)/C(=N/N2CCCC2)c2ccc(S(=O)(=O)C3CC3)cc2)s1
Second: O=C(Nc1nccs1)/C(=N/N1CCCC1)c1ccc(S(=O)(=O)C2CC2)cc1
The IC50 of the first is higher: greater than 100 µM for the first, 17.5 µM for the second.

Molecule CC(=O)N1CCN(Cc2cnc(NC(=O)/C(=N/N3CCCC3)c3ccc(S(=O)(=O)C4CC4)cc3)s2)CC1 has an IC50 greater than 100 µM.
